Bounds are passed on as bounds.

Data set [1] has as its system cerebellar microexplants (P4). Nature of the data set: Glutamate toxicity in P4 cerebellar microexplants and rescue by cPG. It is filed as cell-based, Wistar rats.
Protocol: Cerebellar Cell Culture Preparing and Coating of Cover Slips
Ten coverslips were placed into a large petri dish and washed in 70% alcohol for 5 minutes, then washed with Millipore H2O. The coverslips were air dried, then coated with Poly-D-Lysine (1 mg/ml stock solution in PBS, 90-100 μl) and incubated for 2 hours at 34 C.
Postnatal day 4 Wistar rats were used for the study. Rats were placed in ice for 1 minute, the heads were decapitated and the cerebellum removed on ice. […] The tissue was sieved through (125 μm pore size gaze) and centrifuged (2 minutes at 60 g) two times for a medium exchange into serum-free BSA-supplemented START V medium (Biochrom). The second centrifugation step was done with 1 ml of START V medium. The microexplants were reconstituted into 500 μl of START V medium and put on ice
Two hours after PDL-coating, the slides were washed with Millipore H2O and air dried. Each slide was placed into a small 35 mm petri dish and 40 μl of START V/cell suspension added. The tissue was incubated for 2 hours at 34 C (settlement period). START V-medium (1 ml) was then added to the petri dish and cultivated at 34 C/5% CO2/100% humidity for 48 hours. […] Finally, the microexplants were rinsed in PBS.
10 μl of toxin (L-glutamate-100 mM in Millipore water) was applied simultaneously with cPG (from bachem, 10 mM stock prepared in PBS and diluted to final concentrations between 1-100 nM) for Study 1. A delay in administration of cPG at 6 hours after glutamate treatment was performed for Study 2.
For data set [2] the following is noted: fetal sheep, cited from earlier work.
The test system of data set [3] is rat Hippocampal Organotypic cultures exposed to NMDA. To be noted: lower (1 μM) or higher (50-100 μM) concentrations reduced neuronal damage to a lesser extent; cited from earlier work.
Data set [4] relates to 6-OHDA induced nigral-striatal lesion. Nature of the data set: Apomorphine-induced rotations after 6-OHDA induced nigral-striatal lesion. The class given is in vivo, Wistar rats. The method, then:
Twenty male Wistar rats (280-310 g) were used. After exposing the skull, 6-OHDA (8 μg in a base of 2 μl 0.9% saline containing 1% ascorbic acid) was administered into the right medial forebrain bundle (MFB) using co-ordinates AP +4.7 mm, R 1.6 mmv-8 mm under 3% halothane anaesthesia. 6-OHDA was injected through a 25 G needle connected via a polyethylene catheter to a 100 μl Hamilton syringe. The 6-OHDA was infused by a microdialysis infusion pump at a rate of 0.5 μl/min. The needle was left in the brain for a further 3 minutes before being slowly withdrawn. The skin was sutured with 2.0 silk and the rats were allowed to recover from anaesthesia. The rats were housed in a holding room with free access to food and water at all times except during behavioural testing.
Cyclic PG was dissolved in saline. Four different doses of cPG (0, 0.1 0.5 1 mg/kg, Bachem) were administered intraperitoneally 2 h post lesion.
At 7 days post-lesion, rats were injected with 0.1 mg/kg apomorphine and the number of contralateral rotations/hour was recorded and calculated using a computerised Rotameter (St Diego Instruments). Experimenter was blinded from the treatment groups.

As for `N[C@@H](CCC(=O)O)C(=O)O` [Glutamate, L-glutamate, reference compound], the “loss of cerebellum neurons” value in data set [1] (Study 1, glutamate treatment alone) was found to be 85%.
Turning to insulin-like growth factor I [IGF-I], the “dose at which all the neuroprotective effects are lost” value in data set [2] (1 μg more neuroprotective than 100 ng) was 10 µg. Further, in data set [2], the “dose that usually killed the sheep fetus” value is ≥ 100 µg.
With glycine-proline-glutamate [GPE], in data set [3], the “concentration giving the highest degree of neuroprotection” value is 10 µM.
As to `O=C1NCC(=O)N2CCC[C@@H]12` [cPG, cyclic Prolyl Glycine], in data set [1] (a further lower dose of cPG), the “neuron number compared to the normal control group” value is reported as “significant increase”. For the same compound, the glutamate-induced neurotoxicity entry in data set [1] (given either immediately or 6 hours after the glutamate treatment) is “completely prevented”. The “number of contralateral rotations/hour” value in data set [4] (1 mg cPG intraperitoneally 2 h post lesion, 7 days post-lesion, 0.1 mg/kg apomorphine, n=5, FIG. 5) came out at 154±64.1 rotations/hour. Further, the “reduction of functional deficit (apomorphine induced rotations)” value in data set [4] (highest dose tested (1 mg/kg), ns) is listed as 47%.
